# Test results reported in patent US9635854B2, “Controlling red rice with mesotrione” (FMC Corporation, priority 2014, dated 2017).
# Like-named read-outs stand apart in the source and are kept apart here.
# How the values were obtained:
# [1] = tested on: Rice (Oryza sativa) 'Cybonee'; conditions: PRE, direct-seeded dryland rice
# Description: (§1) Rice (Oryza sativa) was planted in 6″ by 10″ fiber flats filled with sterile top soil. Five rows were made in each flat and the three rice varieties (′Cybonee, ‘Jupiter’, and ‘Taggart’) were planted in the center 3 rows and a row of red rice (Oryza sativa) was planted on either end of the flat. The flats were watered after planting. After application flats were placed in the greenhouse and lightly watered. […] The flats were moved to a greenhouse and watered and fertilized routinely. Studies were conducted using randomized complete block design with four replications. In both studies, visual percent red rice control and rice injury were recorded at 14, 21, and 28 days after treatment (DAT), using a scale of 0 (no control/injury) to 100 (complete plant death).
# [2] = tested on: Rice (Oryza sativa) 'Jupiter'; conditions: PRE, direct-seeded dryland rice
# Description: as §1
# rice (Taggart variety) = experiment: Pre-emergent weed control in direct-seeded flooded rice (Example 2), rice injury; assay type: in vivo; conditions: for % Rice Injury Rice Taggert: pre-emergent, flooded, 28 Days After Treatment
# Description: (§2) Seeds of crops, rice (Taggart and Wells varieties) and weeds, yellow nutsedge (Cyperus esculentus), barnyardgrass (Echinochloa crus-galli), large crabgrass (Digitaria sanguinalis), hemp sesbania (Sesbania herbacea), Benghal dayflower (Commelina benghalensis), red rice (Oryza sativa) and broadleaf signalgrass (Urochloa platyphylla) were planted in two gallon pots containing top soil. Each pot was watered well before the application of mesotrione (Callisto® Herbicide from Syngenta Crop Protection).
# rice (Wells variety) = experiment: as above; assay type: in vivo; conditions: for % Rice Injury Rice Wells: pre-emergent, flooded, 28 Days After Treatment
# Description: as §2
# [3] = tested on: Benghal dayflower (Commelina benghalensis); experiment: Pre-emergent weed control in direct-seeded flooded rice (Example 2); assay type: in vivo; conditions: 28 Days After Treatment
# Description: as §2
# [4] = tested on: barnyardgrass (Echinochloa crus-galli); experiment: as above; assay type: in vivo; conditions: 28 Days After Treatment
# Description: as §2
# [5] = tested on: broadleaf signalgrass (Urochloa platyphylla); experiment: as above; assay type: in vivo; conditions: 28 Days After Treatment
# Description: as §2
# [6] = tested on: hemp sesbania (Sesbania herbacea); experiment: as above; assay type: in vivo; conditions: 28 Days After Treatment
# Description: as §2
# [7] = tested on: large crabgrass (Digitaria sanguinalis); experiment: as above; assay type: in vivo; conditions: 28 Days After Treatment
# Description: as §2
# red rice (Oryza sativa) = experiment: as above; assay type: in vivo; conditions: for % weed control Red Rice: pre-emergent, flooded, 28 Days After Treatment
# Description: as §2
# [8] = tested on: yellow nutsedge (Cyperus esculentus); experiment: as above; assay type: in vivo; conditions: for % weed control Nutsedge: pre-emergent, flooded, 28 Days After Treatment
# Description: as §2
# [9] = pre-emergent treatment at 50 g ai/ha, flooded rice test
smiles,measurement,setting,value
"CS(=O)(=O)c1ccc(C(=O)C2C(=O)CCCC2=O)c([N+](=O)[O-])c1 [Mesotrione, mesotrione]",Percent rice injury Cybonet,"[1]; 14 DAT, 12.5 g ai/ha",6 BCD %
same,Percent rice injury Cybonet,"[1]; 14 DAT, 25 g ai/ha",1 D %
same,Percent rice injury Cybonet,"[1]; 14 DAT, 37.5 g ai/ha",1 D %
same,Percent rice injury Cybonet,"[1]; 14 DAT, 50 g ai/ha",1 D %
same,Percent rice injury Cybonet,"[1]; 14 DAT, 62.5 g ai/ha",4 D %
same,Percent rice injury Cybonet,"[1]; 14 DAT, 75 g ai/ha",5 CD %
same,Percent rice injury Cybonet,"[1]; 14 DAT, 87.5 g ai/ha",11 BC %
same,Percent rice injury Cybonet,"[1]; 14 DAT, 100 g ai/ha",12 B %
same,Percent rice injury Cybonet,"[1]; 21 DAT, 12.5 g ai/ha",5 DE %
same,Percent rice injury Cybonet,"[1]; 21 DAT, 25 g ai/ha",1 E %
same,Percent rice injury Cybonet,"[1]; 21 DAT, 37.5 g ai/ha",1 E %
same,Percent rice injury Cybonet,"[1]; 21 DAT, 50 g ai/ha",5 DE %
same,Percent rice injury Cybonet,"[1]; 21 DAT, 62.5 g ai/ha",5 DE %
same,Percent rice injury Cybonet,"[1]; 21 DAT, 75 g ai/ha",8 BCD %
same,Percent rice injury Cybonet,"[1]; 21 DAT, 87.5 g ai/ha",12 BC %
same,Percent rice injury Cybonet,"[1]; 21 DAT, 100 g ai/ha",13 B %
same,Percent rice injury Cybonet,"[1]; 28 DAT, 12.5 g ai/ha",5 DE %
same,Percent rice injury Cybonet,"[1]; 28 DAT, 25 g ai/ha",1 E %
same,Percent rice injury Cybonet,"[1]; 28 DAT, 37.5 g ai/ha",1 E %
same,Percent rice injury Cybonet,"[1]; 28 DAT, 50 g ai/ha",6 DE %
same,Percent rice injury Cybonet,"[1]; 28 DAT, 62.5 g ai/ha",9 DE %
same,Percent rice injury Cybonet,"[1]; 28 DAT, 75 g ai/ha",15 CD %
same,Percent rice injury Cybonet,"[1]; 28 DAT, 87.5 g ai/ha",25 BC %
same,Percent rice injury Cybonet,"[1]; 28 DAT, 100 g ai/ha",33 AB %
same,Percent rice injury Jupiter,"[2]; 14 DAT, 12.5 g ai/ha",0 E %
same,Percent rice injury Jupiter,"[2]; 14 DAT, 25 g ai/ha",0 E %
same,Percent rice injury Jupiter,"[2]; 14 DAT, 37.5 g ai/ha",2 DE %
same,Percent rice injury Jupiter,"[2]; 14 DAT, 50 g ai/ha",3 DE %
same,Percent rice injury Jupiter,"[2]; 14 DAT, 62.5 g ai/ha",5 CD %
same,Percent rice injury Jupiter,"[2]; 14 DAT, 75 g ai/ha",8 BC %
same,Percent rice injury Jupiter,"[2]; 14 DAT, 87.5 g ai/ha",10 BC %
same,Percent rice injury Jupiter,"[2]; 14 DAT, 100 g ai/ha",11 B %
same,Percent rice injury Jupiter,"[2]; 21 DAT, 12.5 g ai/ha",0 E %
same,Percent rice injury Jupiter,"[2]; 21 DAT, 25 g ai/ha",0 E %
same,Percent rice injury Jupiter,"[2]; 21 DAT, 37.5 g ai/ha",2 DE %
same,Percent rice injury Jupiter,"[2]; 21 DAT, 50 g ai/ha",6 CDS %
same,Percent rice injury Jupiter,"[2]; 21 DAT, 62.5 g ai/ha",7 CD %
same,Percent rice injury Jupiter,"[2]; 21 DAT, 75 g ai/ha",10 BC %
same,Percent rice injury Jupiter,"[2]; 21 DAT, 87.5 g ai/ha",11 BC %
same,Percent rice injury Jupiter,"[2]; 21 DAT, 100 g ai/ha",14 B %
same,Percent rice injury Jupiter,"[2]; 28 DAT, 12.5 g ai/ha",0 D %
same,Percent rice injury Jupiter,"[2]; 28 DAT, 25 g ai/ha",0 D %
same,Percent rice injury Jupiter,"[2]; 28 DAT, 37.5 g ai/ha",1 D %
same,Percent rice injury Jupiter,"[2]; 28 DAT, 50 g ai/ha",6 CD %
same,Percent rice injury Jupiter,"[2]; 28 DAT, 62.5 g ai/ha",8 CD %
same,Percent rice injury Jupiter,"[2]; 28 DAT, 75 g ai/ha",21 BC %
same,Percent rice injury Jupiter,"[2]; 28 DAT, 87.5 g ai/ha",26 B %
same,Percent rice injury Jupiter,"[2]; 28 DAT, 100 g ai/ha",56 A %
same,% Rice Injury Rice Taggert,rice (Taggart variety); 6 g ai/ha,0%
same,% Rice Injury Rice Taggert,rice (Taggart variety); 12 g ai/ha,2%
same,% Rice Injury Rice Taggert,rice (Taggart variety); 25 g ai/ha,4%
same,% Rice Injury Rice Taggert,rice (Taggart variety); 50 g ai/ha,8%
same,% Rice Injury Rice Taggert,rice (Taggart variety); 100 g ai/ha,10%
same,% Rice Injury Rice Taggert,rice (Taggart variety); 200 g ai/ha,53%
same,"safety on white rice, Taggart",rice (Taggart variety); summary of Table 7 data,safe
same,% Rice Injury Rice Wells,rice (Wells variety); 6 g ai/ha,0%
same,% Rice Injury Rice Wells,rice (Wells variety); 12 g ai/ha,2%
same,% Rice Injury Rice Wells,rice (Wells variety); 25 g ai/ha,4%
same,% Rice Injury Rice Wells,rice (Wells variety); 50 g ai/ha,5%
same,% Rice Injury Rice Wells,rice (Wells variety); 100 g ai/ha,12%
same,% Rice Injury Rice Wells,rice (Wells variety); 200 g ai/ha,47%
same,"safety on white rice, Wells",rice (Wells variety); summary of Table 7 data,safe
same,% weed control Dayflower,[3]; 6 g ai/ha,17%
same,% weed control Dayflower,[3]; 12 g ai/ha,63%
same,% weed control Dayflower,[3]; 25 g ai/ha,67%
same,% weed control Dayflower,[3]; 50 g ai/ha,93%
same,% weed control Dayflower,[3]; 100 g ai/ha,83%
same,% weed control Dayflower,[3]; 200 g ai/ha,90%
same,% weed control Barnyardgrass,[4]; 6 g ai/ha,10%
same,% weed control Barnyardgrass,[4]; 12 g ai/ha,32%
same,% weed control Barnyardgrass,[4]; 25 g ai/ha,35%
same,% weed control Barnyardgrass,[4]; 50 g ai/ha,62%
same,% weed control Barnyardgrass,[4]; 100 g ai/ha,82%
same,% weed control Barnyardgrass,[4]; 200 g ai/ha,100%
same,% weed control Signalgrass,[5]; 6 g ai/ha,23%
same,% weed control Signalgrass,[5]; 12 g ai/ha,23%
same,% weed control Signalgrass,[5]; 25 g ai/ha,57%
same,% weed control Signalgrass,[5]; 50 g ai/ha,90%
same,% weed control Signalgrass,[5]; 100 g ai/ha,98%
same,% weed control Signalgrass,[5]; 200 g ai/ha,100%
same,% weed control Hemp,[6]; 6 g ai/ha,0%
same,% weed control Hemp,[6]; 12 g ai/ha,30%
same,% weed control Hemp,[6]; 25 g ai/ha,13%
same,% weed control Hemp,[6]; 50 g ai/ha,45%
same,% weed control Hemp,[6]; 100 g ai/ha,98%
same,% weed control Hemp,[6]; 200 g ai/ha,100%
same,% weed control Crabgrass,[7]; 6 g ai/ha,70%
same,% weed control Crabgrass,[7]; 12 g ai/ha,100%
same,% weed control Crabgrass,[7]; 25 g ai/ha,100%
same,% weed control Crabgrass,[7]; 50 g ai/ha,100%
same,% weed control Crabgrass,[7]; 100 g ai/ha,100%
same,% weed control Crabgrass,[7]; 200 g ai/ha,100%
same,"red rice control (words, FIG. 1)",red rice (Oryza sativa); [9],controlled
same,% weed control Red Rice,red rice (Oryza sativa); 6 g ai/ha,23%
same,% weed control Red Rice,red rice (Oryza sativa); 12 g ai/ha,33%
same,% weed control Red Rice,red rice (Oryza sativa); 25 g ai/ha,90%
same,% weed control Red Rice,red rice (Oryza sativa); 50 g ai/ha,100%
same,% weed control Red Rice,red rice (Oryza sativa); 100 g ai/ha,97%
same,% weed control Red Rice,red rice (Oryza sativa); 200 g ai/ha,100%
same,red rice control,red rice (Oryza sativa); summary of Table 7 data,controls
same,"yellow nutsedge control (words, FIG. 1)",[8]; [9],controlled
same,% weed control Nutsedge,[8]; 6 g ai/ha,38%
same,% weed control Nutsedge,[8]; 12 g ai/ha,77%
same,% weed control Nutsedge,[8]; 25 g ai/ha,92%
same,% weed control Nutsedge,[8]; 50 g ai/ha,97%
same,% weed control Nutsedge,[8]; 100 g ai/ha,100%
same,% weed control Nutsedge,[8]; 200 g ai/ha,100%
